According to US20050209289A1, “Method for vascular dysregulation” (priority 2004, published 2005):

System: clinical patients
Assay: Clinical patient encounters treated with vascular dysregulation techniques (trigger elimination plus calcium channel blocker and/or antiemetic); case reports
Assay type: in vivo, human
Conditions: person
Experimental: At Step 36, a personal and family medical history of a patient is collected during a patient encounter. […] At Step 42, a list of environmental triggers for the one or more determined dysregulation pathways to be avoided is prepared for the patient. At Step 44, a list of medical triggers for the one or more determined dysregulation pathway to be avoided is prepared for the patient. At Step 46, the patient's current medication profile, if any, is adjusted for the one or more determined dysregulation pathways, thereby treating the medical condition via the one or more determined dysregulation pathways.
At Step 50, a test is conducted to determine whether a patient has a chronic medical condition and has one or more common symptoms based on a personal and medical history collected during a patient encounter. […] The vascular dysregulation techniques include eliminating environmental triggers, eliminating medical triggers and adjusting patient's current medication profile.

COc1ccc([C@@H]2Sc3ccccc3N(CCN(C)C)C(=O)[C@@H]2OC(C)=O)cc1 [diltiazem]
Cold toes and fingers, Patient E (cold toes and fingers, migraine headaches, off caffeine): obtained warm fingers and toes | Severe headaches and insomnia, Patient H (coffee and diet sodas eliminated, daily dose): severe headaches were eliminated and they are sleeping soundly | Singing voice (unexpected effect), Patient E (off caffeine, presumed secondary to decreased post-nasal drip and nasal congestion): significantly stronger singing voice
